Legend:
IMR-32 = test: Cytotoxicity against human IMR32 cells at 60 ug/ml by MTT assay; assay type: functional
[1] = Anticancer activity against mouse EAC cells xenografted in Swiss albino mouse assessed as inhibition of ascitic cell count; assay type: functional, Ehrlich
[2] = Anticancer activity against mouse EAC cells xenografted in Swiss albino mouse assessed as inhibition of ascitic fluid weight; assay type: functional, Ehrlich
[3] = Anticancer activity against mouse EAC cells xenografted in Swiss albino mouse assessed as inhibition of ascitic cell count at 1 mg/kg; assay type: functional; settings: Ehrlich
[4] = Anticancer activity against mouse EAC cells xenografted in Swiss albino mouse assessed as inhibition of ascitic fluid weight at 1 mg/kg; assay type: functional; settings: Ehrlich

SMILES	inhibition at 60 µg/mL (IMR-32)	inhibition (INH) [1]	inhibition (INH) [2]	inhibition in vivo at 1 mg/kg [3]	inhibition in vivo at 1 mg/kg [4]
CCCNC(=O)CCC(NS(=O)(=O)c1cc(C)ccc1Cl)C(=O)NCCC (stereo not given)	14.9%	–	–	–	–
Cc1ccc(Cl)c(S(=O)(=O)NC(CCC(N)=O)C(N)=O)c1 (stereo not given)	25.8%	28.6%	36.5%	–	–
[N-]=[N+]=CC(=O)CC[C@H](N)C(=O)O [6-DIAZO-5-OXO-L-NORLEUCINE]	–	–	–	100%	100%
Cc1ccc(Cl)c(S(=O)(=O)NC(CCC(=O)Nc2ccccc2)C(=O)Nc2ccccc2)c1 (stereo not given)	–	45.5%	41.2%	–	–
Cc1ccc(Cl)c(S(=O)(=O)NC(CCC(=O)NC(C)C)C(=O)NC(C)C)c1 (stereo not given)	29.8%	53%	81.5%	–	–
CCCCCNC(=O)CCC(NS(=O)(=O)c1ccc(Cl)c(Cl)c1)C(=O)NCCCCC (stereo not given)	20.8%	10%	28.1%	–	–
CCCCNC(=O)CCC(NS(=O)(=O)c1cc(Cl)ccc1Cl)C(=O)NCCCC (stereo not given)	15.8%	57.9%	34%	–	–
CC(C)NC(=O)CCC(NS(=O)(=O)c1cc(Cl)ccc1Cl)C(=O)NC(C)C (stereo not given)	16.7%	73.3%	38.5%	–	–
CC(C)CNC(=O)CCC(NS(=O)(=O)c1cc(Cl)ccc1Cl)C(=O)NCC(C)C (stereo not given)	20.4%	79.3%	42.5%	–	–
Cc1ccc(Cl)c(S(=O)(=O)NC(CCC(=O)NC2CCCCC2)C(=O)NC2CCCCC2)c1 (stereo not given)	49.7%	35%	40.2%	–	–
O=C(CCC(NS(=O)(=O)c1ccc(Cl)c(Cl)c1)C(=O)NCc1ccccc1)NCc1ccccc1 (stereo not given)	11.4%	45.3%	40%	–	–
CC(C)CNC(=O)CCC(NS(=O)(=O)c1ccc(Br)cc1)C(=O)NCC(C)C (stereo not given)	17.1%	50.8%	54%	–	–
O=C(CCC(NS(=O)(=O)c1ccc(Br)cc1)C(=O)NC1CCCCC1)NC1CCCCC1 (stereo not given)	18.4%	47%	43%	–	–
CCCCCNC(=O)CCC(NS(=O)(=O)c1cc(C)ccc1Cl)C(=O)NCCCCC (stereo not given)	14.7%	47.1%	33.3%	–	–
CC(C)NC(=O)CCC(NS(=O)(=O)c1ccc(C(C)(C)C)cc1)C(=O)NC(C)C (stereo not given)	65.6%	34.1%	44.7%	–	–
Cc1ccc(S(=O)(=O)NC(CCC(N)=O)C(N)=O)c(C)c1 (stereo not given)	28.2%	35.2%	31.2%	–	–
O=C(CCC(NS(=O)(=O)c1ccc(Br)cc1)C(=O)Nc1ccccc1)Nc1ccccc1 (stereo not given)	10%	66.5%	63.4%	–	–
CCNC(=O)CCC(NS(=O)(=O)c1cc(Cl)ccc1Cl)C(=O)NCC (stereo not given)	12.9%	67.5%	60.5%	–	–

SMILES	inhibition at 60 µg/mL (IMR-32)	inhibition (INH) [1]	inhibition (INH) [2]	inhibition in vivo at 1 mg/kg [3]	inhibition in vivo at 1 mg/kg [4]
Cc1ccc(Cl)c(S(=O)(=O)NC(CCC(=O)NCC(C)C)C(=O)NCC(C)C)c1 (stereo not given)	–	40%	27.9%	–	–
CCCCCNC(=O)CCC(NS(=O)(=O)c1cc(Cl)ccc1Cl)C(=O)NCCCCC (stereo not given)	12.2%	61.1%	41.2%	–	–
O=C(CCC(NS(=O)(=O)c1ccc(Cl)c(Cl)c1)C(=O)NC1CCCCC1)NC1CCCCC1 (stereo not given)	24%	17.4%	16.8%	–	–
CCCCNC(=O)CCC(NS(=O)(=O)c1ccc(C)cc1C)C(=O)NCCCC (stereo not given)	46.1%	35.6%	46.1%	–	–
CCNC(=O)CCC(NS(=O)(=O)c1ccc(C(C)(C)C)cc1)C(=O)NCC (stereo not given)	58.4%	21.6%	30.8%	–	–
CCCCCCNC(=O)CCC(NS(=O)(=O)c1cc(C)ccc1Cl)C(=O)NCCCCCC (stereo not given)	11.3%	33.4%	24.2%	–	–
Cc1ccc(Cl)c(S(=O)(=O)NC(CCC(=O)NCc2ccccc2)C(=O)NCc2ccccc2)c1 (stereo not given)	–	50.5%	36.5%	–	–
O=C(CCC(NS(=O)(=O)c1cc(Cl)ccc1Cl)C(=O)NCc1ccccc1)NCc1ccccc1 (stereo not given)	13.4%	53.1%	49.9%	–	–
CCCCCCNC(=O)CCC(NS(=O)(=O)c1ccc(C)cc1C)C(=O)NCCCCCC (stereo not given)	66%	52.1%	38.4%	–	–
CC(C)(C)c1ccc(S(=O)(=O)NC(CCC(N)=O)C(N)=O)cc1 (stereo not given)	–	42.15%	27.5%	–	–
O=C(CCC(NS(=O)(=O)c1ccc(Br)cc1)C(=O)NCc1ccccc1)NCc1ccccc1 (stereo not given)	–	48.9%	70%	–	–
CO[C@@]12[C@H](COC(N)=O)C3=C(C(=O)C(C)=C(N)C3=O)N1C[C@@H]1N[C@@H]12 [MITOMYCIN]	–	–	–	100%	100%
CCCCNC(=O)CCC(NS(=O)(=O)c1cc(C)ccc1Cl)C(=O)NCCCC (stereo not given)	18%	43.5%	25.2%	–	–
CCCCCCNC(=O)CCC(NS(=O)(=O)c1cc(Cl)ccc1Cl)C(=O)NCCCCCC (stereo not given)	12.4%	52.9%	31.9%	–	–
CCNC(=O)CCC(NS(=O)(=O)c1cc(C)ccc1Cl)C(=O)NCC (stereo not given)	31.8%	32.3%	28.1%	–	–
N#[N+]/C=C(\[O-])OC[C@H](N)C(=O)O [AZASERIN]	–	–	–	100%	100%
O=C(CCC(NS(=O)(=O)c1cc(Cl)ccc1Cl)C(=O)Nc1ccccc1)Nc1ccccc1 (stereo not given)	22.9%	71.1%	35.2%	–	–

Reference: ChEMBL document CHEMBL1152857, “Possible anticancer agents: QSAR analogs of glutamamide: synthesis and pharmacological activity of 1,5-N,N'-disubstituted-2-(substituted benzenesulphonyl) glutamamides” (2009)
